Data from US20220274961A1, “SUBSTITUTED FUSED BI- OR TRI- HETEROCYCLIC COMPOUNDS AS EHMT2 INHIBITORS” (priority 2016, published 2022).
Read-outs that look alike come from different tables or passages of the source.

Assays:
human EHMT2 913-1193 = target: T1, human EHMT2 913-1193 (Homo sapiens, UniProt Q96KQ7); assay: biochemical
T1 construct: recombinant purified human EHMT2 913-1193, Viva; purchased Viva
T1 sequence (Q96KQ7 913-1193): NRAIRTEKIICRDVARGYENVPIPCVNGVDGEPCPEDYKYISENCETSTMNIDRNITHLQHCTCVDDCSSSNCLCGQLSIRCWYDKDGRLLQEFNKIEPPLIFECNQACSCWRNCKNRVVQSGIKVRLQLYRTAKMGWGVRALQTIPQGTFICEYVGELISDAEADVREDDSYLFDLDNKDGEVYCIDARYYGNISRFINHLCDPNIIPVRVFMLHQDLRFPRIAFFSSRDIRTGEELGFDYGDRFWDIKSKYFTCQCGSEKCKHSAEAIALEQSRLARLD
Description: Biotinylated histone peptides were synthesized by Biopeptide and HPLC-purified to >95% purity. Streptavidin Flashplates and seals were purchased from PerkinElmer and 384 Well V-bottom Polypropylene Plates were from Greiner. ^3H-labeled S-adenosylmethionine (^3H-SAM) was obtained from American Radiolabeled Chemicals with a specific activity of 80 Ci/mmol. Unlabeled SAM and S-adenosylhomocysteine (SAH) were obtained from American Radiolabeled Chemicals and Sigma-Aldrich respectively. […] 384-well Flashplates and 96-well filter binding plates were read on a TopCount microplate reader (PerkinElmer). Compound serial dilutions were performed on a Freedom EVO (Tecan) and spotted into assay plates using a Thermo Scientific Matrix PlateMate (Thermo Scientific). Reagent cocktails were added by Multidrop Combi (Thermo Scientific).
General Procedure for EHMT2 Enzyme Assay on Histone Peptide Substrate. 10-point curves of test compounds were made on a Freedom EVO (Tecan) using serial 3-fold dilutions in DMSO, beginning at 2.5 mM (final top concentration of compound was 50 μM and the DMSO was 2%). A 1 μL aliquot of the inhibitor dilution series was spotted in a polypropylene 384-well V-bottom plate (Greiner) using a Thermo Scientific Matrix PlateMate (Thermo Scientific). […] Reactions were incubated for 60 minutes at room temperature and quenched with 10 μL per well of 400 μM unlabeled SAM, then transferred to a 384-well streptavidin Flashplate (PerkinElmer) and washed in a Biotek ELx-405 well washer with 0.1% Tween after 60 minutes. 384-well Flashplates were read on a TopCount microplate reader (PerkinElmer).

EHMT1 = target: T2, EHMT1 (Homo sapiens, UniProt Q9H9B1); assay: EHMT1 PEP; format: biochemical
T2 sequence (Q9H9B1 1-1298): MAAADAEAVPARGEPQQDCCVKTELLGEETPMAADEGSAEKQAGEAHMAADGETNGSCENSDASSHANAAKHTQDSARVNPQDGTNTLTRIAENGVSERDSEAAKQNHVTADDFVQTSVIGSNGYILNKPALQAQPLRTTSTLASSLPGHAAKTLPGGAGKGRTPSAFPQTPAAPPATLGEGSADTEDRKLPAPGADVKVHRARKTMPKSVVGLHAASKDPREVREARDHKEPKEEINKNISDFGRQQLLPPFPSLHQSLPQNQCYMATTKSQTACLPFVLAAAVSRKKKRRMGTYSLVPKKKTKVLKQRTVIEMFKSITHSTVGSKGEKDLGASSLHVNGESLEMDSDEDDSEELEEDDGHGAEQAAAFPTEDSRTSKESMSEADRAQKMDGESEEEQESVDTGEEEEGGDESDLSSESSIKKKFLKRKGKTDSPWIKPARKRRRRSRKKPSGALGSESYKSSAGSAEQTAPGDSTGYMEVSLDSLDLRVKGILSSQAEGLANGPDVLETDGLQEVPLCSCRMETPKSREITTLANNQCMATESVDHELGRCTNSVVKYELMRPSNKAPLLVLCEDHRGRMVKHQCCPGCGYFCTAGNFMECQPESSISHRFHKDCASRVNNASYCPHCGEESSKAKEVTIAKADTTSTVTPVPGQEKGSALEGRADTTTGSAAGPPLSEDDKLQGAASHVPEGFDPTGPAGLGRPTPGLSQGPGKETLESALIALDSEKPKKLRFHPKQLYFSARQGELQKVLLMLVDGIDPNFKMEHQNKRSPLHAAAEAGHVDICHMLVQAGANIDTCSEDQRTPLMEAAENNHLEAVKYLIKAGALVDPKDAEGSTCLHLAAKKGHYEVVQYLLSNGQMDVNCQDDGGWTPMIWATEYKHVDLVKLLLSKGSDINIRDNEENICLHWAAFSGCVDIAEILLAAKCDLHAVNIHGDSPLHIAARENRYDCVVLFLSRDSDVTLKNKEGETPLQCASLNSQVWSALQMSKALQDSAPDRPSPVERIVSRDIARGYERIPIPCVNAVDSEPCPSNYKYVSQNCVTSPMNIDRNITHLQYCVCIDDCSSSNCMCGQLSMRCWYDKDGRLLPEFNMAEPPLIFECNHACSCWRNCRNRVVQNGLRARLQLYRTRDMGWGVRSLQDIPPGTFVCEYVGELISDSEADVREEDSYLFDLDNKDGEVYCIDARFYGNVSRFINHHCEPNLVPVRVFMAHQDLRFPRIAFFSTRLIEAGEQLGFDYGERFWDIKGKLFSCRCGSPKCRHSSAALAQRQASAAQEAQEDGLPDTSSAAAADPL

[1] = recombinant human EHMT2 913-1193, histone H3 1-15 peptide, 3H-SAM, balanced conditions, read-out: EHMT2 PEP (IC50 μM)

Compound | IC50 (human EHMT2 913-1193; [1]) | IC50 (EHMT1) | IC50 (human EHMT2 913-1193)
CCN1CC[C@@H](COc2cc3nc(N)n(C4CCCC4)c3cc2OC)C1 [Compound 9, 1-cyclopentyl-5-[[(3R)-1-ethylpyrrolidin-3-yl]methoxy]-6-methoxy-1H-1,3-benzodiazol-2-amine] | < 0.1 µM | < 0.1 µM | –
CNC1=Nc2cc(C#CC(C)N3CCCC3)c(OC)cc2C12CCC2 (centres unmarked) [Compound 84] | < 0.1 µM | < 0.1 µM | –
COc1cc2c(cc1OCCCN1CCCC1)nc(N)n2CC(F)(F)F [Compound 11, 6-methoxy-5-(3-(pyrrolidin-1-yl)propoxy)-1-(2,2,2-trifluoroethyl)-1H-benzo[d]imidazole-2-amine] | 0.1 to 1 µM | 0.1 to 1 µM | –
COc1cc2c(cc1OC[C@H](O)CN1CCCC1)nc(NCC1CC1)n2C [Compound 34] | 0.1 to 1 µM | < 0.1 µM | –
COc1cc2[nH]c(N)nc2cc1OCCCN1CCCC1 [Compound 1, 6-methoxy-5-(3-(pyrrolidin-1-yl)propoxy)-1H-benzo[d]imidazol-2-amine] | < 0.1 µM | < 0.1 µM | –
CNC1=Nc2cc(C#C[C@H](C)N3CCCC3)c(OC)cc2C12CCC2 [Compound 85] | < 0.1 µM | < 0.1 µM | –
CNc1nc2cc(OC[C@H](O)CN3CCC3)c(OC)cc2n1C [Compound 25] | 0.1 to 1 µM | < 0.1 µM | –
CCNC1=Nc2cc(CNCCN3CCCC3)c(OC)cc2C12CCC2 [Compound 71] | < 0.1 µM | < 0.1 µM | –
CNc1nc2cc(CNCCN3CCCC3)c(OC)cc2n1C(C)C [Compound 40] | 0.1 to 1 µM | < 0.1 µM | –
CCN1CC(COc2cc3nc(N)n(C4CCCC4)c3cc2OC)C1 [Compound 10, 1-cyclopentyl-5-((1-ethylazetidin-3-yl)methoxy)-6-methoxy-1H-benzo[d]imidazol-2-amine] | 0.1 to 1 µM | < 0.1 µM | –
COc1cc2c(cc1OCCCN1CCCC1)nc(N)n2C [Compound 2, 6-methoxy-1-methyl-5-(3-(pyrrolidin-1-yl)propoxy)-1H-benzo[d]imidazol-2-amine] | < 0.1 µM | < 0.1 µM | –
CNC1=Nc2cc(C#CCN3CCCCC3)c(OC)cc2C12CCC2 [Compound 75, 5′-methoxy-N-methyl-6′-(3-(piperidin-1-yl)prop-1-yn-1-yl)spiro[cyclobutane-1,3′-indol]-2′-amine] | < 0.1 µM | < 0.1 µM | –
CCCNC1=Nc2cc(CNCCN3CCCC3)c(OC)cc2C12CCC2 [Compound 73] | < 0.1 µM | < 0.1 µM | –
COc1cc2c(cc1C#CCN1CCCC1)N=C(N)C21CCC1 [Compound 24, 5′-methoxy-6′-(3-(pyrrolidin-1-yl)prop-1-yn-1-yl)spiro[cyclobutane-1,3′-indol]-2′-amine] | < 0.1 µM | < 0.1 µM | –
COc1cc2c(cc1OCCCN1CCCC1)nc(NCC(F)(F)F)n2C [Compound 12, 6-methoxy-1-methyl-5-(3-(pyrrolidin-1-yl)propoxy)-N-(2,2,2-trifluoroethyl)-1H-benzo[d]imidazol-2-amine] | 1 to 10 µM | 1 to 10 µM | –
CNC1=Nc2cc(CNCCN3CCCC3)c(OC)cc2C12CCC2 [Compound 70] | < 0.1 µM | < 0.1 µM | –
COc1cc2c(cc1OCCCN1CCCC1)nc(N)n2CC1CCOCC1 [Compound 18] | 0.1 to 1 µM | 0.1 to 1 µM | –
COc1cc2c(cc1OC[C@H](O)CN1CCCC1)nc(NC(C)C)n2C [Compound 32] | 0.1 to 1 µM | 0.1 to 1 µM | –
COc1cc2c(cc1OCCCN1CCCC1)N=C(N)C21CCOCC1 [Compound 5, 5-methoxy-6-(3-(pyrrolidin-1-yl)propoxy)-2′,3′,5′,6′-tetrahydrospiro[indole-3,4′-pyran]-2-amine] | < 0.1 µM | < 0.1 µM | –

Compound | IC50 (human EHMT2 913-1193; [1]) | IC50 (EHMT1) | IC50 (human EHMT2 913-1193)
COc1cc2c(cc1OCCCN1CCCC1)nc(NC(C)C)n2C [Compound 28] | 0.1 to 1 µM | 0.1 to 1 µM | –
CNc1nc2cc(OCCCN3CCCC3)c(OC)cc2n1C [Compound 8, 6-methoxy-N,1-dimethyl-5-(3-(pyrrolidin-1-yl)propoxy)-1H-benzo[d]imidazol-2-amine] | < 0.1 µM | < 0.1 µM | –
CNc1nc2cc(OC[C@H](O)CN3CCCC3)c(OC)cc2n1C1CCCC1 [Compound 38] | < 0.1 µM | < 0.1 µM | –
CNc1nc2cc(CNCCN3CCCC3)c(Cl)cc2n1C(C)C [Compound 138] | 1 to 10 µM | 0.1 to 1 µM | –
CNc1nc2cc(OCCCN3CCCC3)c(OC)cc2n1C(C)C [Compound 36] | < 0.1 µM | < 0.1 µM | –
COc1cc2c(cc1OCCCN1CCCC1)nc(N)n2C(C)C [Compound 19] | < 0.1 µM | < 0.1 µM | –
COc1cc2c(cc1OCCCN1CCCC1)nc(C1CCCC1)n2C [Compound 22, 2-cyclopentyl-6-methoxy-1-methyl-5-(3-(pyrrolidin-1-yl)propoxy)-1H-benzo[d]imidazole] | 1 to 10 µM | 1 to 10 µM | –
CCn1c(NC)nc2cc(OCCCN3CCCC3)c(OC)cc21 [Compound 42] | < 0.1 µM | < 0.1 µM | –
CNc1nc2cc(CNCCN3CCCC3)c(C)cc2n1C(C)C [Compound 139] | 1 to 10 µM | 0.1 to 1 µM | –
CNC1=Nc2cc(C#CCN3CCC(F)C3)c(OC)cc2C12CCC2 (centres unmarked) [Compound 100] | 0.1 to 1 µM | 0.1 to 1 µM | –
CNc1nc2cc(OCCCN3CCCC3)c(OC)cc2n1C1CCOCC1 [Compound 13, 6-methoxy-N-methyl-5-(3-(pyrrolidin-1-yl)propoxy)-1-(tetrahydro-2H-pyran-4-yl)-1H-benzo[d]imidazol-2-amine] | < 0.1 µM | < 0.1 µM | –
COc1cc2c(cc1OCCCN1CCCC1)nc(C)n2C [Compound 21, 6-methoxy-1,2-dimethyl-5-(3-(pyrrolidin-1-yl)propoxy)-1H-benzo[d]imidazole] | 1 to 10 µM | 1 to 10 µM | –
COc1cc2c(cc1OC[C@H](O)CN1CCCC1)nc(NC1CCOCC1)n2C [Compound 35] | 1 to 10 µM | 1 to 10 µM | –
CCNc1nc2cc(OCCCN3CCCC3)c(OC)cc2n1CC [Compound 39] | < 0.1 µM | < 0.1 µM | –
COc1cc2c(cc1OCCCN1CCCC1)nc(NC1CCOCC1)n2C [Compound 29] | 1 to 10 µM | 1 to 10 µM | –
COc1cc2c(cc1OC[C@H](O)CN1CCCC1)nc(NC1CCCC1)n2C [Compound 33] | 0.1 to 1 µM | 0.1 to 1 µM | –
CNc1nc2cc(OC[C@H](O)CN3CCCC3)c(OC)cc2n1C [Compound 26] | 0.1 to 1 µM | < 0.1 µM | –
COc1cc2c(cc1OCCCN1CCCC1)N=C(N)C21CCOC1 (centres unmarked) [Compound 7, 5′-methoxy-6′-(3-(pyrrolidin-1-yl)propoxy)-4,5-dihydro-2H-spiro[furan-3,3′-indol]-2′-amine] | – | < 0.1 µM | < 0.1 µM
